# From patent US20240067693A1, “POLYPEPTIDES AND USES THEREOF” (MEDIMMUNE LIMITED, priority 2020, published 2024)
# Numbered stars: 1 amine (or outer) side, 2 acyl side, 3 side chain; on linkers, the order of the positions; unused ones are H or OH. Bridge positions count the residues as written; N and C are the ends. Square brackets hold non-standard residues; d marks the D form. Side chains are listed from the residue outwards. Peptide text beside a SMILES is read from it. * marks the point of attachment. C18 diacid = O=C(O)CCCCCCCCCCCCCCCCC(=O)*; γGlu = O=C(O)[C@H](CCC(=O)[*:2])N[*:1]; Aib = CC(C)(N)C(=O)O
# Columns and labels:
# lean rats = assay: Rat acute food intake study; type: in vivo; conditions: lean male Sprague Dawley rats, 20 nmol/kg subcutaneously
# Description: Male Sprague Dawley rats were obtained from Taconic Denmark, ApS at approximately 7 weeks of age. Rats were implanted with a microchip for identification, housed 4/cage with enrichment, free access to food and water, and allowed one week acclimatisation while non-invasive characterization was performed. Rats were on a 12:12 light:dark cycle that switches at 1pm:1am. Food intake was monitored via the HM2 system (Lafayette Instrument) that allows for monitoring in a home cage. As each rat enters an access tunnel to feed, an IR beam is broken, and the implanted microchip is read. Resulting changes to food weight is then assigned to the specific animal. Social order has shown no impact to overall feeding patterns and amounts.
# Rats were sorted into groups based on Day -1 body weight and 24-hour accumulated food intake (n=7 per group). On Day 0 rats were weighed, then fasted for 6 hours. Thirty (30) minutes prior to the reintroduction of food, rats were dosed subcutaneously (5 mL/kg) with 20 nmol/kg of test compound or 60 nmol/kg peptide 1 (pramlintide) diluted in an appropriate vehicle, after which food was returned, and lights went out. Automated food intake was monitored for the following 3 days, and rats were weighed once per day.
# Food intake per rat was batched into 1-hour intervals and integrated into Gubra's GubraView data management system. Discrete food intake data was exported into MS Excel from which cumulative food intake data was generated. Cumulative food intake data was then transposed into GraphPad Prism (v8.0.1) for analysis of dark period feeding
# [1] = target: T1, human amylin receptor (calcitonin receptor co-expressed with receptor activity modifying protein, RAMP3) (hAMYR3) (Homo sapiens, UniProt O60896+P30988); assay: cAMP production in 1321N1 cells with stable recombinant expression of human amylin receptor (hAMYR3); type: cell-based; conditions: for Ratio (selectivity hAMYR vs hCTR, ratio of EC50 values at the two receptors): EC50 hCTR / EC50 hAMYR3; for EC50: cAMP, 1321N1 cells, assay buffer with 0.1% BSA, read-out: EC50 (pM) hAMYR3
# T1 construct: expressed in transfected cells
# T1 sequence (P30988 25-474): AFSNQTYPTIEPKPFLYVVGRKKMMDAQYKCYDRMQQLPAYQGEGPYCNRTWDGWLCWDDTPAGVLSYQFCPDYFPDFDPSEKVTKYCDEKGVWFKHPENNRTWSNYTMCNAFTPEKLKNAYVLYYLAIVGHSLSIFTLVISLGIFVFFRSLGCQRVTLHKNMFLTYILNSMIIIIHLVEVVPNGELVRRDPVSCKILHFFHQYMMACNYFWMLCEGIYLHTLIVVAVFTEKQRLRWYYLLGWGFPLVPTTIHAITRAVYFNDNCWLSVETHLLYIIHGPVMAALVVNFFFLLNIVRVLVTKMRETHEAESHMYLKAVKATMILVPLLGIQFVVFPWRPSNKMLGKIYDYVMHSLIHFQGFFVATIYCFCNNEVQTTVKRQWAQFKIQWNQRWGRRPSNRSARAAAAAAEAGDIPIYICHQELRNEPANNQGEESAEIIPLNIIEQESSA
# T1 sequence (O60896 24-148 partner): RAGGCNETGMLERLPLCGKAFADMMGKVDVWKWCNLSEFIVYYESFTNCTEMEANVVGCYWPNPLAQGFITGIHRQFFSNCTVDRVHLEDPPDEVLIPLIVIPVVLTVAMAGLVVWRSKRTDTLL
# In short: (§1)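 Receptor-expressing cells (human receptors in 1321N1, rat receptors in HEK) incubated 30 min at room temperature with peptide in HBSS/HEPES pH 7.4, 0.1% BSA, 0.5 mM IBMX. cAMP read by HTRF; EC50 from 4-parameter fit as % of maximal amylin or calcitonin response.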
# [2] = target: T2, human calcitonin receptor (hCTR) (Homo sapiens, UniProt P30988); assay: cAMP production in 1321N1 cells with stable recombinant expression of human calcitonin receptor (hCTR); type: cell-based; conditions: cAMP, 1321N1 cells, assay buffer with 0.1% BSA; read-out: EC50 (pM) hCTR
# T2 construct: expressed in transfected cells
# T2 sequence (P30988 25-474): T1 sequence (P30988 25-474)
# In short: as §1
# [3] = target: T3, rat amylin receptor (calcitonin receptor co-expressed with receptor activity modifying protein, RAMP3) (Rat AMYR3) (Rattus norvegicus, UniProt P32214+Q9JJ73); assay: cAMP production in HEK cells with stable recombinant expression of rat amylin receptor (Rat AMYR3); type: cell-based; conditions: assay buffer with 0.1% BSA
# T3 construct: expressed in transfected cells
# T3 sequence (P32214 25-516): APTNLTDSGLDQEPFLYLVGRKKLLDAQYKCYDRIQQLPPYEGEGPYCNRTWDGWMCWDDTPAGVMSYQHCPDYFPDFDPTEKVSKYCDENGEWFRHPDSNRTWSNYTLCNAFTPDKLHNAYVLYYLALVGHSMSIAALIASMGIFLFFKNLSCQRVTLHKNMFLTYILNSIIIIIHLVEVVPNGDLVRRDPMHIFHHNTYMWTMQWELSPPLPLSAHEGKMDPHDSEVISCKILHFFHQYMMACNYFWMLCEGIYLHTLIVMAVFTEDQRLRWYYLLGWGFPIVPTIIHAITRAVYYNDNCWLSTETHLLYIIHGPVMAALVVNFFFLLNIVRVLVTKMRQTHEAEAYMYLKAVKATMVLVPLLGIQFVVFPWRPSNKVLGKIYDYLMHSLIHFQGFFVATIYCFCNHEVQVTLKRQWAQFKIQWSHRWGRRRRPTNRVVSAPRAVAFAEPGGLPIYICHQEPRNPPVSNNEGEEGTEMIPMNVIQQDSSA
# T3 sequence (Q9JJ73 23-147 partner): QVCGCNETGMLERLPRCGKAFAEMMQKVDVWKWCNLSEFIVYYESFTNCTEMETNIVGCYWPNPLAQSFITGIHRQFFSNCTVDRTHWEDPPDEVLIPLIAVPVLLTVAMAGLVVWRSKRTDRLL
# Description: (§2) The functional activities of lipidated pramlintide analogue peptides, such as cAMP production, were tested in 1321N1 cell line with stable recombinant expression of human calcitonin receptor (hCTR) or human amylin receptor (calcitonin receptor co-expressed with receptor activity modifying protein, RAMP3) (hAMYR3) or HEK cells with stable recombinant expression of rat calcitonin receptor (rat CTR) or rat amylin receptor (calcitonin receptor co-expressed with receptor activity modifying protein, RAMP3) (Rat AMYR3).
# (§3) Cryopreserved cell stock was thawed rapidly in a water-bath, suspended in assay buffer (0.1% BSA (Sigma # A3059) in HBSS (Sigma # H8264) with 25 mM HEPES, pH 7.4 and containing 0.5 mM IB MX (Sigma# 17018)) and spun at 240×g for 5 minutes. Cells were re-suspended in assay buffer at a batch-dependent optimized concentration (e.g. hCTR cells at 0.125×10^5 cells/mL, hAMYR3 cells at 0.125×10^5 cells/mL, rat CTR cells at 1x10^5 cells/mL, rat AMYR3 at 2×10^5 cells/mL).
# (§4) The test peptide stock was prepared in DMSO and diluted in assay buffer to reach stated concentrations and transferred in duplicates into a 384-black shallow well microtitre assay plate (Corning # 3676). Cells were added to the assay plate, incubated at room temperature for 30 minutes and the cAMP level measured using cAMP dynamic 2 HTRF kit (Cisbio, Cat # 62AM4PEJ), following the two step protocol as per manufacturer's recommendations. The plates were read on an Envision (Perkin Elmer) using excitation wavelength of 320 nm and emission wavelengths of 620nm & 665 nm.
# (§5) Data was transformed to % Delta F as described in the manufacturer's guidelines and analyzed as percent activation of maximal amylin or calcitonin effect by 4-parameter logistic fit to determine EC50 values. The selectivity of a peptide to hAMYR vs hCTR is defined as a ratio of EC50 values at the two receptors.
# [4] = target: T4, rat calcitonin receptor (rat CTR) (Rattus norvegicus, UniProt P32214); assay: cAMP production in HEK cells with stable recombinant expression of rat calcitonin receptor (rat CTR); type: cell-based; conditions: assay buffer with 0.1% BSA
# T4 construct: expressed in transfected cells
# T4 sequence (P32214 25-516): T3 sequence (P32214 25-516)
# Description: as §2, §3, §4, §5
# [5] = Pharmacokinetic determination via IV and SC administration in Sprague Dawley rats; conditions: male, rat, plasma, 20 nmol/kg
# in vivo = conditions: male, Sprague-Dawley, rat, 20 nmol/kg
"Ratio (selectivity hAMYR vs hCTR, ratio of EC50 values at the two receptors) [1]",EC50 [1],EC50 [2],EC50 [3],EC50 [4],half-life ([5]; iv),half-life ([5]; sc),half-life (in vivo; iv),half-life (in vivo; sc),Compound,Cummulative food intake (% vehicle treated intake) At 12 h (lean rats),Cummulative food intake (% vehicle treated intake) At 24 h (lean rats),Cummulative food intake (% vehicle treated intake) At 48 h (lean rats)
6,190 pM,1050 pM,5.1 pM,20.3 pM,6.6 h,9 h,–,–,"CC[C@H](C)[C@H](NC(=O)[C@@H]1CCCN1C(=O)CNC(=O)[C@H](Cc1ccccc1)NC(=O)[C@H](CC(N)=O)NC(=O)C(C)(C)NC(=O)[C@H](CO)NC(=O)[C@H](CO)NC(=O)[C@H](Cc1c[nH]cn1)NC(=O)[C@@H](NC(=O)[C@H](CC(C)C)NC(=O)[C@H](Cc1ccccc1)NC(=O)[C@H](CCC(=O)O)NC(=O)[C@H](C)NC(=O)[C@H](CC(C)C)NC(=O)[C@H](CCCNC(=N)N)NC(=O)[C@H](CCC(N)=O)NC(=O)[C@@H](NC(=O)[C@H](C)NC(=O)[C@@H]1CSSC[C@H](NC(=O)[C@H](CCCCN)NC(=O)[C@@H](N)CCCCNC(=O)CC[C@H](NC(=O)CCCCCCCCCCCCCCCCC(=O)O)C(=O)O)C(=O)N[C@@H](CC(N)=O)C(=O)N[C@@H]([C@@H](C)O)C(=O)N[C@@H](C)C(=O)N[C@@H]([C@@H](C)O)C(=O)N1)[C@@H](C)O)C(C)C)C(=O)N[C@@H](CC(C)C)C(=O)N1CCC[C@H]1C(=O)N1CCC[C@H]1C(=O)N[C@H](C(=O)N[C@@H](CC(N)=O)C(=O)N[C@H](C(=O)NCC(=O)N[C@@H](CO)C(=O)N[C@@H](CC(N)=O)C(=O)N[C@H](C(=O)N[C@@H](Cc1ccc(O)cc1)C(N)=O)[C@@H](C)O)C(C)C)[C@@H](C)O [Peptide 38, K(γE-C18diacid)K[CNTATC]ATQRLAEFLVHSS(Aib)NFGPILPPTNVGSNTY-amide] (H-K([γGlu-C18 diacid])KCNTATCATQRLAEFLVHSS[Aib]NFGPILPPTNVGSNTY-NH2; disulfide 3-8; N-terminus assumed)",6.9 % vehicle treated intake,5.5 % vehicle treated intake,13.7 % vehicle treated intake
7,178 pM,1180 pM,8.2 pM,925 pM,–,–,8.3 h,10.1 h,"CC[C@H](C)[C@H](NC(=O)[C@@H]1CCCN1C(=O)CNC(=O)[C@H](Cc1ccccc1)NC(=O)[C@H](CC(N)=O)NC(=O)C(C)(C)NC(=O)[C@H](CO)NC(=O)[C@H](CO)NC(=O)[C@H](Cc1c[nH]cn1)NC(=O)[C@@H](NC(=O)[C@H](CC(C)C)NC(=O)[C@H](Cc1ccccc1)NC(=O)[C@H](CC(N)=O)NC(=O)[C@H](C)NC(=O)[C@H](CC(C)C)NC(=O)[C@H](CCCNC(=N)N)NC(=O)[C@H](CCC(N)=O)NC(=O)[C@@H](NC(=O)[C@H](C)NC(=O)[C@@H]1CSSC[C@H](NC(=O)[C@H](CCCCN)NC(=O)[C@@H](N)CCCCNC(=O)CC[C@H](NC(=O)CCCCCCCCCCCCCCCCC(=O)O)C(=O)O)C(=O)N[C@@H](CC(N)=O)C(=O)N[C@@H]([C@@H](C)O)C(=O)N[C@@H](C)C(=O)N[C@@H]([C@@H](C)O)C(=O)N1)[C@@H](C)O)C(C)C)C(=O)N[C@@H](CC(C)C)C(=O)N1CCC[C@H]1C(=O)N1CCC[C@H]1C(=O)N[C@H](C(=O)N[C@@H](CCC(=O)O)C(=O)N[C@H](C(=O)NCC(=O)N[C@@H](CO)C(=O)N[C@@H](CC(N)=O)C(=O)N[C@H](C(=O)N[C@@H](Cc1ccc(O)cc1)C(N)=O)[C@@H](C)O)C(C)C)[C@@H](C)O [Peptide 41, K(γE-C18diacid)K[CNTATC]ATQRLANFLVHSS(Aib)NFGPILPPTEVGSNTY-amide] (H-K([γGlu-C18 diacid])KCNTATCATQRLANFLVHSS[Aib]NFGPILPPTEVGSNTY-NH2; disulfide 3-8; N-terminus assumed)",44.6 % vehicle treated intake,38.5 % vehicle treated intake,58.8 % vehicle treated intake
